The values below are quoted from earlier work in patent US11034961B2 (priority 2015, dated 2021).

For data set [1] the following is noted: administered by IV.
The conditions of data set [2]: infusion into the scala tympani.

Each structure is given as a SMILES string.

As to `CCN(CC)CC(=O)Nc1c(C)cccc1C` [Lidocaine], the “sufferers in whom the noise associated with tinnitus is reduced or eliminated” value in data set [1] is 60-80%.
With `Cc1ccccc1C(=O)Nc1ccc(C(=O)N2CCCC(N(C)C)c3ccccc32)cc1` (centres unmarked) [OPC-31260], the “Meniere's disease symptoms” value in data set [2] is “marked reduction”.
